{
  "source": "patent US20170231974A1",
  "about": "“Combined Use of an Alpha-Adrenergic Receptor Antagonist and an Anti-Muscarinic Agent” (Astellas Ireland Co., Ltd., priority 2008, published 2017)",
  "origin": "cited, not measured here",
  "tested_on": "male patients with lower urinary tract symptoms associated with prostatic hyperplasia",
  "key": {"[1]": {"details": "male patients, at least 1 urgency episode per day and 8 or more micturitions per day"}},
  "note": "Structures can show the parent of a compound that is named as a salt.",
  "data": [
    {"smiles": "COc1cc2nc(N3CCN(C(=O)C4COc5ccccc5O4)CC3)nc(N)c2cc1OC", "note": "(centres unmarked) [doxazosin]", "values": [
      {"measurement": "improvement of storage symptom score", "setting": "[1]", "result": 2.9, "unit": "points"},
      {"measurement": "improvement of total I-PSS", "setting": "[1]", "result": 7.3, "unit": "points"},
      {"measurement": "improvement of voiding score", "setting": "[1]", "result": 4.5, "unit": "points"}
    ]},
    {"smiles": "CCCOC(C(=O)OC1CCN(C)CC1)(c1ccccc1)c1ccccc1", "note": "[Propiverine, propiverine hydrochloride]", "values": [
      {"measurement": "acute urinary retention (AUR)", "setting": "added to doxazosin", "result": "no acute urinary retention (AUR) was observed"},
      {"measurement": "effect on urinary flow rate", "setting": "added to doxazosin", "result": "did not affect the urinary flow rate"}
    ]}
  ]
}
